This passage reports EC50 and CC50 results from patent US20230201236A1, “SPIROCYCLIC NUCLEOSIDE ANALOGUES FOR THE TREATMENT OF HEPATITIS E” (priority 2020, published 2023).

Holding throughout (assay type): cell-based
Series [1] relates to rat HEV replicon LA-B350/luc. Nature of the series: Antiviral activity against rat HEV replicon LA-B350/luc in Huh7 cells (Gaussia luciferase). Particulars: Huh-7, 72 h, luminescence after 3 days, two or three experiments. The method, then:
The antiviral activity of compounds was tested against the rat HEV replicon LA-B350/luc as described in Debing et al (Dis Model Mech 2016; 9:1203-10). To this end, Huh7 cells were electroporated with capped viral RNA produced from plasmid pLA-B350/luc, plated in 96-well plates and treated with each of compounds at selected concentrations. For virus control (VC), compound was omitted. After 3 days, luminescence produced by the secreted Gaussia luciferase was quantified using the Promega Renilla luciferase kit and corrected for background with a cell control (CC, viral RNA and compound omitted). The 50% effective concentration (EC50) is defined as the concentration of compound that causes a 50% reduction in the Luc signal compared to that of average corrected VC. The EC50 was based on two or three experiments and derived by a nonlinear regression fit in GraphPad using a two-parameter logistic model while keeping the slope variable.
In general terms: In antiviral work, replicon cells carry a viral genome segment that copies itself.

The nature of series [2]: Viability evaluation (MTS/PMS) of Huh7 cells transfected with the rat HEV replicon. The conditions noted are these: human, highest tested concentration 50 μM. The method, then:
(§1) For viability evaluation, medium was removed and cells were subsequently incubated with MTS/PMS solution (3-(4,5-dimethylthiazol-2-yl)-5-(3-carboxymethoxyphenyl)-2-(4-sulfophenyl)-2H-tetrazolium/phenazinemethosulfate), which is metabolized to produce a brown, water-soluble product that is quantified after 1 h at 37° C. by absorbance read-out at 498 nm. Obtained values are expressed as percent inhibition of untreated RNA-transfected control condition. The CC50 represents the concentration at which the metabolic activity of the cells would be reduced to 50% of the metabolic activity of untreated cells (and was based on two experiments and derived by a nonlinear regression fit in GraphPad using a two-parameter logistic model while keeping the slope variable).

The test system of series [3] is HEV Genotype 3 replicon Kernow-C1 p6/luc. Nature of the series: Antiviral activity against HEV Genotype 3 replicon Kernow-C1 p6/luc in Huh7 cells (Gaussia luciferase). The conditions noted are these: Huh-7, 96 h, luminescence after 4 days, 4PL fit, two experiments, read-out: relative EC50. The method, then: The antiviral activity of compounds was tested against the HEV Genotype 3 replicon Kernow-C1 p6/luc (Kernow-C1 p6: GenBank accession number JQ679013) as previously described (Debing Y, Emerson S U, Wang Y, Pan Q, Balzarini J, Dallmeier K, Neyts J. 2013. Ribavirin Inhibits In Vitro Hepatitis E Virus Replication through Depletion of Cellular GTP Pools and Is Moderately Synergistic with Alpha Interferon. Antimicrob Agents Chemother, 58:267-273). To this end, Huh7 cells were electroporated with capped in vitro transcribed Kernow-C1 p6/luc-RNA produced from Mlul-digested plasmid DNA (Shukla P, Nguyen H T, Faulk K, Mather K, Torian U, Engle R E, Emerson SU. 2012. Adaptation of a genotype 3 hepatitis E virus to efficient growth in cell culture depends on an inserted human gene segment acquired by recombination. J. Virol. 86:5697-5707), seeded in 96-well plates containing serial dilutions of the test compounds. For virus control (VC) compound was omitted. After 4 days, luminescence produced by the secreted Gaussia luciferase was quantified using the Promega Renilla luciferase kit and corrected for background with a cell control (CC, viral RNA and compound omitted). The relative 50% effective concentration (EC50) is defined as the concentration of compound that causes a 50% reduction in the Luc signal, relative to the signal range. The relative EC50 was based on two experiments and derived by a nonlinear regression fit in GraphPad using a four-parameter logistic (4PL) model.

A short description of series [4]: Viability evaluation (MTS/PMS) of Huh7 cells transfected with Kernow-C1 p6/luc RNA. Particulars: human, highest tested concentration 50 μM, read-out: relative CC50. The method, then: as §1, with “percentage” for “percent inhibition”, “The relative” for “The”, “and” for “(and”, “two or three” for “two”, “four-parameter” for “two-parameter”, “(4PL) model.” for “model while keeping the slope variable).”

What is called EC50 is the concentration needed to bring the measured effect to its halfway point. The CC50 is the concentration at which the toxic effect on the cells reaches its halfway point. With `CC(C)OC(=O)[C@H](C)NP(=O)(OC[C@H]1O[C@@H](n2ccc(=O)[nH]c2=O)[C@@]2(CCS2)[C@@H]1O)Oc1ccccc1` (stereo partly drawn) [Compound 3, (2S)-isopropyl 2-(((((4R,5R,7R,8R)-5-(2,4-dioxo-3,4-dihydropyrimidin-1(2H)-yl)-8-hydroxy-6-oxa-1-thiaspiro[3.4]octan-7-yl)methoxy)(phenoxy)phosphoryl)amino)propanoate], the half-maximal effective concentration (EC50) in series [1] was 27 µM; in series [3], greater than 50 µM. Besides, the CC50 in series [2] and in series [4] was greater than 50 µM in each case.

For the compound `CC(C)OC(=O)[C@H](C)NP(=O)(OC[C@@]1(F)O[C@@H](n2ccc(=O)[nH]c2=O)[C@@]2(CCS2)[C@@H]1O)Oc1ccccc1` (stereo partly drawn) [Compound 2, (2S)-isopropyl 2-(((((4R,5R,7S,8R)-5-(2,4-dioxo-3,4-dihydropyrimidin-1(2H)-yl)-7-fluoro-8-hydroxy-6-oxa-1-thiaspiro[3.4]octan-7-yl)methoxy)(phenoxy)phosphoryl)-amino)propanoate], the EC50 in series [1] came to 5.9 µM. The CC50 in series [2] and in series [4] was greater than 50 µM throughout.

For the compound `COC(=O)C(C)(C)NP(=O)(OC[C@H]1O[C@@H](n2ccc(=O)[nH]c2=O)[C@@]2(CCO2)[C@@H]1O)Oc1ccccc1` (stereo partly drawn) [Compound 4, methyl 2-[[[(4R,5R,7R,8R)-5-(2,4-dioxo-3,4-dihydropyrimidin-1(2H)-yl)-8-hydroxy-1,6-dioxaspiro[3.4]octan-7-yl]methoxy](phenoxy)phosphorylamino]-2-methylpropanoate], the values for the EC50 in series [1] and in series [3] were 0.36 µM and 0.53 µM, respectively. Moreover, the CC50 in series [2] and in series [4] was greater than 50 µM in each case.

Turning to `CC(C)OC(=O)C(C)NP(=O)(OC[C@@]1(N=[N+]=[N-])O[C@@H](n2ccc(=O)[nH]c2=O)[C@@]2(CCS2)[C@@H]1O)Oc1ccccc1` (stereo in doubt) [Compound 1, isopropyl (2R)-2-[[[(4R,5R,6R,8R)-6-azido-8-(2,4-dioxopyrimidin-1-yl)-5-hydroxy-7-oxa-1-thiaspiro[3.4]octan-6-yl]methoxy-phenoxy-phosphoryl]amino]propanoate], the half-maximal effective concentration (EC50) is 0.74 µM in series [1] and greater than 50 µM in series [3]. Further, the CC50 in series [2] and in series [4] was greater than 50 µM each time.
